Laboratory results from patent US20070043108A1, “Use of equol for ameliorating or preventing neuropsychiatric and neurodegenerative diseases or disorders” (priority 2002, published 2007).
Blank lines part the entries; values can stand above or below the compound they belong to.

Legend:
[1] = test system: mid-aged Long-Evans female rats; test: Example 17: Porsolt forced swim test and body weight in mid-aged female rats; assay type: in vivo, rat
Description: The female rats were exposed (from time of conception) to either a phytoestrogen-rich (Phyto-600) or a phytoestrogen-free (Phyto-free) diet.
At 12 months of age, the animals were analyzed using the Porsolt forced swim test that is a standard preclinical test with applications to humans for investigating the neurobiology of depression and of action of antidepressant agent (R. D. Porsolt, M. Pichon and M Jalfre, Nature 266: 730-732, 1977; and M. A. Geyer & A. Markou, in Psychopharmacology: The Fourth Generation of Progress, NY, Raven Press, pp. 787-798, 1995).
The test is designed to force rats to swim vigorously. Over time, some of the animals may become immobile which is considered a condition of behavioral despair. The total time an animal is immobile is an index of despair or depression. […] S. Hall, J. Comp. Psych., 18: 385-403, 1934), increased boli numbers during the test would indicate heighten emotional behavior. All of these parameters were recorded in this study and quantified by AnyMaze® computer software and the total time of the Porsolt forced swim test was 480 seconds or 8 minutes.
The animals were tested twice.
Test 1 compared diet exposure alone, shown as A in FIGS. 58-69 and labeled as “before equol injections.”
In the second stage of testing the Phyto-free fed females were injected with equol@ […] or 2.5 mg/kg via subcutaneous administration) for 8 days while the Phyto-600 fed females received dimethylsulfoxide (DMSO) vehicle control injections. (DMSO has been used in medicine due to its ability to penetrate deeply through the skin and other membranes without damaging them and ability to carry compounds into the circulation).
Test 2 assessed depressive behaviors following the equol treatments, shown as B in FIGS. 58-69 and labeled as “after equol injections.”

[2] = test system: GDX males; test: Examples 5 and 6: gonadectomized (GDX) male rats treated with DHTP, equol or both; histology; assay type: in vivo, rat
Description: One week following arrival, animals are gonadectomized (GDX) under isoflurane anesthesia and allowed to recover for 7 days. Following recovery, animals are assigned to the following groups 1) DMSO, 2) DHTP (2 mg/1 kg), 3) racemic equol (0.25 mg/kg), or 4) both DHTP and racemic equol. Injections are given subcutaneously daily for 4 days. Animals are killed via decapitation and trunk blood and tissues are collected for analysis.
Tissues, including prostate, testes and epididymis, are removed from the animal, dissected free of fat and connective tissues, weighed, fixed by immersion in 4% paraformaldehyde, and then sectioned at 15 μm on a cryostat. Tissue sections are mounted on charged slides (Superfrost Plus, Fisher Scientific, Pittsburgh, Pa.) prewarmed to 23° C., and stained with hematoxylin and eosin (H&E), dehydrated in ascending alcohol and cleared with xylene.

[3] = test system: intact males; test: Example 2: tissue weights from intact males given sc injections of racemic equol; assay type: in vivo, rat; details: sc once/day for 7 days
[4] = humans; cited from earlier work
[5] = test system: adult Long-Evans male rats; details: equol-treated male rats vs control, previously reported in US 2005/0245492; cited from earlier work
[6] = test system: Long-Evans rats, male offspring; test: Example 19: elevated plus maze of adult male offspring after pre- and early postnatal treatment; assay type: in vivo, rat; details: offspring tested at about 90 days
Description: Pregnant Long-Evans rats were treated via daily subcutaneous injections from gestational day 14 through 20 and during lactation from postnatal day 2 through 25 with: 1) control-DMSO vehicle or, 2) genistein@ 3 mg/day or 3) equol@ 3 mg/day according to the treatment groups. All animals were fed a phytoestrogen-low diet throughout these studies (10 ppm isoflavones). There were no significant differences in maternal body weights just before birth among the treatment groups. […] The maternal and male offspring genistein and equol levels @ 25 days post birth) paralleled that of the treatments administered.
At approximately 90 days of age the male offspring were tested by treatments (control, genistein and equol) in the EPM that was video-taped for 3 minutes and later recorded for the number of entries into—and the percentage of total time spent—on the open arms, as previously described. […] Equol time intervals were 2-fold greater than genistein values and genistein levels were approximately 9-fold greater than controls.

[7] = test system: Male Sprague-Dawley rats; test: Example 1: prostate size and hormone secretion in intact male rats injected sc with racemic equol; assay type: in vivo, rat; details: intact males, 0.25 mg/kg sc 1/day for 4 days, vs control
Description: Male Sprague-Dawley rats (400-500 grams) are obtained from Charles Rivers Laboratories (Wilmington, Mass., USA). Rats are caged in pairs and maintained on a 12-hour dark 12-hour light schedule (lights on at 0700 h) with ad libitum access to food and water.
One week following arrival, animals are given subcutaneous (sc) injections (1/day for 4 days) of either dimethylsulfoxide (DMSO) (vehicle control) or racemic equol (0.25 mg/kg). Eighteen hours after the final injection, animals are killed via decapitation and trunk blood and prostate are collected for analysis.

[8] = test system: GDX males; test: Examples 5 and 6: gonadectomized (GDX) male rats treated with DHTP, equol or both; histology; assay type: in vivo, rat; remark: listed apart in the source
[9] = Bioavailability of R-equol after oral administration to a healthy adult; assay type: in vivo, human
Description: 20 mg of pure R-equol was administered orally to a healthy adult after an overnight fast. Blood samples were collected at timed intervals over the next 24 hours and the plasma concentration of equol was determined by isotope dilution gas chromatography-mass spectrometry with selected ion monitoring. Rapid appearance of equol is observed in the plasma with peak concentrations observed after 8 hours. The terminal elimination half-life of R-equol was approximately 8 hours.

[10] = Test 2, Phyto-free females after equol for 8 days

- Pituitary (g) [3]: 0.014 (±0.002) g
- Testes (g) [3]: 3.48 (±0.08) g
SMILES: Oc1ccc(C2COc3cc(O)ccc3C2)cc1 (racemic) [equol, 7-hydroxy-3(4′hydroxyphenyl)-chroman]
- total distance traveled ([1]; Test 2, Phyto-free females after equol 5 mg/day sc for 8 days): increased and similar to control values
- number of boli [1, 10]: reduced after equol treatments
- number of dives [1, 10]: significantly reduced and comparable to control levels
- total time immobile [1, 10]: significantly reduced and similar to controls
- total time mobile ([1]; Test 2, after vs before equol injections): significantly increased
- decrease in body weight over controls ([1]; after the 8 day treatment interval): 2.6 fold
- Body Weight Loss (grams) ([1]; mid-aged females, end of 8 day treatment, ±SEM): −31.2 (±4.8*) grams
- LH, in combination with DHTP ([2]; GDX males, DHTP+equol): blocks the negative feedback effects of DHTP on LH secretion
- prostate weight, concomitant treatment with DHTP ([2]; GDX males, DHTP+equol): blocks the effects of DHTP
- LH ([2]; GDX males, given alone, vs DMSO): no effect on LH levels
- prostate weight ([2]; GDX males, given alone, vs vehicle-treated GDX): no effect alone on prostate size
- plasma 5α-DHT, co-treatment of DHTP-treated animals with equol ([2]; GDX+equol+DHTP vs GDX+DHTP): further elevated, although, not significantly
- Body (g) [3]: 418.0 (±7.52) g
- Epididymis (g) [3]: 1.59 (±0.06) g
- Prostate (g) [3]: 0.38 (±0.06) g
- proportion circulating in the free or unbound form in plasma [4]: Approximately 50%
- 5α-DHT [5]: significant reductions
- prostate weight [5]: significant reductions
- serum testosterone, luteinizing hormone (LH) or 17β-estradiol levels [5]: no alteration
- entries into the open arms vs controls ([6]; 3 mg/day sc to dams): significantly greater
- time in the open arms vs controls ([6]; 3 mg/day sc to dams): significantly greater
- open arm time intervals, fold greater than genistein values [6]: 2 fold
- luteinizing hormone (LH) [7]: significantly increased
- prostate weight [7]: significant reduction
- epididymal histology (H&E) ([8]; intact males vs control males): overall smaller ducts
- prostate histology (H&E) ([8]; intact males vs intact control): involution and consist of more closely spaced, atrophic glands

SMILES: Oc1ccc([C@@H]2COc3cc(O)ccc3C2)cc1 [R-equol]
- bioavailability ([9]; 20 mg orally): extremely bioavailable
- time of peak plasma concentrations ([9]; 20 mg orally after overnight fast, healthy adult): 8 h
- stability of the enantiomer in vivo (racemization, biotransformation) ([9]; equol in plasma by ESI-MS after 20 mg orally): does not undergo any racemization or further biotransformation in the intestine
- half-life ([9]; human, plasma, po, 20 mg orally, healthy adult, read-out: terminal elimination half-life (converted)): ~8 h
